Measured values from ChEMBL document CHEMBL4000199, “Synthesis and biological evaluation of novel hydroxybenzaldehyde-based kojic acid analogues as inhibitors of mushroom tyrosinase” (Bioorg Med Chem Lett, 2017).
Calls of active or inactive are those of the source. No cut-off for these calls is given here.

Tests used:
Tyrosinase = target: T1, Tyrosinase (Agaricus bisporus, UniProt O42713); experiment: (§1) Inhibition of mushroom tyrosinase diphenolase activity assessed as reduction in dopachrome formation using L-DOPA as substrate preincubated for 20 mins followed by substrate addition measured for 1 min
T1 sequence (O42713 whole entry): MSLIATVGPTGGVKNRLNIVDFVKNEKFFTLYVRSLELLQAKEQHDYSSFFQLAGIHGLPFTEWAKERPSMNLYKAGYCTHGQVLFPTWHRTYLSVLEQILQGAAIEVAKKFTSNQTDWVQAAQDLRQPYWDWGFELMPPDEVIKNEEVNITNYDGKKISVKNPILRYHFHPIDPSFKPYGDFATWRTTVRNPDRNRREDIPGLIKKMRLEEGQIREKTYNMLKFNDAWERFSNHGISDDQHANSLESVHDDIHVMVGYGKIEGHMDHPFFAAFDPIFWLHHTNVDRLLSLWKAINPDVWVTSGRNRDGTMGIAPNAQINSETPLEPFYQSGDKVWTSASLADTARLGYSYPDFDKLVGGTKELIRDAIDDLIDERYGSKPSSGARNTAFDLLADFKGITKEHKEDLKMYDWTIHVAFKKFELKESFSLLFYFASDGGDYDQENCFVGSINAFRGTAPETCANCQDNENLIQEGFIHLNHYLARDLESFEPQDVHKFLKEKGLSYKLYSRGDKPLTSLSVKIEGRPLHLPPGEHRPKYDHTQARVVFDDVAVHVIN

Mushroom tyrosinase = Mushroom tyrosinase (Agaricus bisporus, UniProt O42713+Q00024+C7FF04+C7FF05); experiment: Inhibition of mushroom tyrosinase using L-tyrosine as substrate measured after 20 mins
[1] = target: T2, Tyrosinase (Agaricus bisporus) (UniProt O42713); experiment: Competitive inhibition of mushroom tyrosinase up to 1.2 uM using varying levels of L-DOPA as substrate preincubated for 20 mins followed by substrate addition measured for 1 min by Lineweaver-Burk plot analysis
T2 sequence (whole entry): T1 sequence (O42713 whole entry)

[2] = target: T2, Tyrosinase (Agaricus bisporus); experiment: as §1

Row | IC50 (Tyrosinase) [µM] | SMILES | further results
1 | 3.8 | Cc1ccc(-c2nnc(SCc3cc(=O)c(O)co3)n2NCc2ccccc2O)cc1 | –
2 | – | O=c1cc(CSc2ccc(O)cc2)occ1O | IC50 (Mushroom tyrosinase): 0.54 µM
3 | 5.8 | Cc1nnc(SCc2cc(=O)c(O)co2)n1NCc1ccc(O)cc1O | –
4 | 17.5 | COc1cc(/C=N/n2cnnc2SCc2cc(=O)c(O)co2)ccc1O | –
5 | 5.85 | O=c1cc(CSc2nncn2NCc2ccccc2O)occ1O | –
6 | 7.6 | CCc1nnc(SCc2cc(=O)c(O)co2)n1NCc1ccccc1O | –
7 | 2.5 | O=c1cc(CSc2nnc(-c3cccc(Cl)c3)n2NCc2ccccc2O)occ1O | –
8 | 5.2 | O=c1cc(CSc2nnc(-c3ccccc3Cl)n2/N=C/c2ccc(O)c(O)c2)occ1O | –
9 | 12.5 | Cc1nnc(SCc2cc(=O)c(O)co2)n1NCc1cccc(O)c1 | –
10 | 8.54 | O=c1cc(CSc2nncn2/N=C/c2ccc(O)cc2)occ1O | –
11 | 1.71 | O=c1cc(CSc2nnc(-c3ccc(Cl)cc3)n2NCc2ccccc2O)occ1O | –
12 | 10.2 | Cc1nnc(SCc2cc(=O)c(O)co2)n1NCc1ccccc1O | –
13 | 1.35 | O=c1cc(CSc2nnc(-c3ccccc3)n2NCc2ccc(O)cc2O)occ1O | inhibition [1]: Active; inhibition [2]: Dose-dependent effect
14 | 9.6 | O=c1cc(CSc2nncn2/N=C/c2ccc(O)cc2O)occ1O | –
15 | 1.5 | O=c1cc(CSc2nnc(-c3ccccc3)n2NCc2ccccc2O)occ1O | –
